How the values were obtained:
[1] = Acute toxicity (LD50, Litchfield-Wilcoxon test, intraperitoneal); set-up: species or system I.C.R. Swiss albino mice; settings: mouse, in vivo, ip, mice, deaths noted 48 hours after treatment
Protocol: A--ACUTE TOXICITY Acute toxicity studies have been made in I.C.R. Swiss albino mice of both sexes of a weight of 30±2 g, kept without food for 24 hours prior to the experiment. Ambient temperature and relative humidity were held constant. The products were administered intraperitoneally, with the number of deaths noted 48 hours from the moment of treatment. Calculation of the lethal dose 50 (LD50) was made by the Litchfield-Wilcoxon test.

[2] = tested on: I.C.R. Swiss albino mice; assay: Thermal analgesia, 55° C. "hot plate" technique; format: in vivo; settings: for Jumping time: 30 min before 55° C. hot plate, x ± S.E.M.; for thermal analgesic activity (in words): hot plate, i.p.
Protocol: The thermal analgesic effect has been studied in I.C.R. Swiss albino mice. The 55° C. "hot plate" technique was used. Batches of 10 mice were made. The products in study were administered intraperitoneally and after 30 minutes the mice were placed on the hot plate and note was made, in seconds, of the time it took them to jump. Batches were made of control animals injected only with distilled water.

[3] = tested on: I.C.R. Swiss albino mice; assay: Chemical analgesia, acetic acid writhing technique; format: in vivo; settings: for No. of writhes: 30 min before acetic acid, noted 20 min after, x ± S.E.M.; for analgesic activity compared with dextropropoxyphene (in words): acetic acid writhing, i.p.
Protocol: 2. Chemical analgesia The analgesic effect has been studied in I.C.R. Swiss albino mice, employing the acetic acid writhing technique. Batches of 10 mice were made.
The products studied were administered intraperitoneally, and after 30 minutes the mice were injected intraperitoneally with 0.25 ml of 1% acetic acid. A batch of control animals received only the acetic acid. Note was made of the number of writhes in each mouse 20 minutes following injection of the acetic acid.

[4] = 25 mg/kg i.p., control 30.9 ± 5.016
[5] = 30 mg/kg i.p., control 122.1 ± 9.15
[6] = 50 mg/kg i.p., control 48.8 ± 5.033
[7] = 25 mg/kg i.p., control 109.9 ± 6.362

| SMILES | LD50 at 48 h [1] [mg/kg] | Jumping time [2, 4] [s] | thermal analgesic activity (in words) [2] | No. of writhes [3, 5] | analgesic activity compared with dextropropoxyphene (in words) [3] | Jumping time [2, 6] [s] | No. of writhes [3, 7] |
| --- | --- | --- | --- | --- | --- | --- | --- |
| CN1CCC2(C)CC1Cc1sc3ccccc3c12 (racemic) [Product I, 2,5-dimethyl-benzo[b]thiene[3,2-f]morphan] | 90.8 | 48.9 ± 8.956 | lacks any thermal analgesic activity | 44.3 ± 6.14 | has analgesic activity, but of lesser intensity than that of dextropropoxyphene |  |  |
| CCC(=O)O[C@](Cc1ccccc1)(c1ccccc1)[C@H](C)CN(C)C [Dextropropoxyphene, dextropropoxyphene, reference compound] |  | 70.8 ± 13.592 |  | 24 ± 6.03 |  | 91.3 ± 7.894 | 27.8 ± 8.365 |
| CC1=CCN(C)C(Cc2cc3ccccc3s2)C1 (centres unmarked) [Product II, 2-(2-benzo[b]thienylmethyl)-1,4-dimethyl-1,2,3,6-tetrahydropyridine] | 916 |  | lacks any thermal analgesic activity |  | not significantly different from that of dextropropoxyphene | 63 ± 8.368 | 41.2 ± 6.024 |
